The target in one assay is T1, PI3K alfa (Homo sapiens, UniProt P42336).
T1 construct: His tag (C); made in house; host or cells: baculovirus BV1075; Tn5 (Trichoplusia ni) or TiniPro insect cells
In words: PI3K alpha kinase assay (Kinase-Glo luminescence). Type of assay: biochemical. In a few lines: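 IC50 values come from a four-parameter logistic fit of percent inhibition at eight concentrations, typically 10 to 0.003 μM. Recombinant PI3Kα at 10 nM turned over 1 μM ATP with 10 μg/mL PI for 60 min at room temperature, and residual ATP was measured by Kinase-Glo.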
A general note: Kinase-Glo measures the ATP left after a reaction by luminescence.

Assay [1] concerns S6 Ribosomal Protein phosphorylation Ser235/236 in TSC1 null mouse embryo fibroblast (MEF) cells. Description: Reverse protein array, S6 Ribosomal Protein phosphorylation in TSC1 null MEF cells. It is filed as cell-based. As to conditions: 1 h, TSC1-/- MEFs, 60 minutes. As to the method: TSC1−/− MEFs cells (provided by D. Kwiatkowski), were cultivated in Dulbecco's modified Eagle's medium (DMEM high Glucose, GIBCO, cat. No. 41956-039) supplemented with 10% heat inactivated fetal bovine calf serum (Amimed, cat. No. 2-01F16-I), 1% L-Glutamine (Invitrogen, cat. No. 25030-02), 1% penicillin-streptomycin (GIBCO, cat. No. 15140-114) at 37° C. in a 5% CO2 and 95% relative humidity atmosphere incubator.
The TSC1−/− cells were trypsinized and counted with a CASY TT cell counter (Schärfe System GmbH, Reutlingen Germany). The cells were diluted in fresh DMEM complete medium and 0.75×10^4 cells/150 μl/well seeded in 96-well TPP-tissue culture plates (TPP, cat. No. 92096). The plates were incubated at 37° C. and 5% CO2 under humidified condition for at least 20 h. Working solutions were prepared freshly as serial 8 step dilutions (vol/vol) in DMSO on the day of the experiment. The working solutions were further diluted 1/5000 in cell culture medium to get final compound concentrations of […]. The final DMSO concentration was kept constant at 0.02%. cell culture medium containing 0.02% DMSO was used as vehicle treatment control. Post incubation, the cells were treated with the serial compound dilution. 50 μl of the compound medium mixture was added to the wells containing cells and 150 μl DMEM medium and incubated for 60 minutes (37° C., 5% CO2). After 60 minutes of incubation, the medium mixture was quickly removed by aspiration. For cell lysis, a mixture of 10% CLB1 CeLyA lysis buffer (Zeptosens, cat. No. 9000), 90% CSBL1 CeLyA spotting buffer (Zeptosens, cat. No. 9020) was freshly prepared and supplemented with 1% Octyl β-D-glucopyranoside (SIGMA, cat. No. 08001-5G) and 1 mM Na-Orthovanadate (Sigma, cat No. S-6508). 50 μl of the described lysis buffer mix was added to each well, followed by 10 minutes of incubation on ice. After an additional freeze-thaw cycle, another 50 μl of the lysis buffer mix without Octyl β-D-glucopyranoside was added to the wells, and 90 μl of the cell lysate was transferred to a 96-well V-bottom plate (Fisher Scientific, cat. No. 6067Y), followed by a centrifugation step (5 min, 1500 rpm at 19° C. in an Eppendorf 5810R centrifuge) to remove the unlysed cell debris.
The spotting of the chips follows the previous described method.
The signal detection and the data analysis follows the previous described method using the pS6 ribosomal protein Ser235/236 (CST, cat. No. #2211) as a primary antibody.

This is an account of results in patent US20100311714A1, “1H-IMIDAZO[4,5-c]QUINOLINONE COMPOUNDS” (priority 2009, published 2010).

Like-named read-outs stand apart in the source and are kept apart here.

T1 sequence (P42336 with tags, fused parts or gaps limits assumed): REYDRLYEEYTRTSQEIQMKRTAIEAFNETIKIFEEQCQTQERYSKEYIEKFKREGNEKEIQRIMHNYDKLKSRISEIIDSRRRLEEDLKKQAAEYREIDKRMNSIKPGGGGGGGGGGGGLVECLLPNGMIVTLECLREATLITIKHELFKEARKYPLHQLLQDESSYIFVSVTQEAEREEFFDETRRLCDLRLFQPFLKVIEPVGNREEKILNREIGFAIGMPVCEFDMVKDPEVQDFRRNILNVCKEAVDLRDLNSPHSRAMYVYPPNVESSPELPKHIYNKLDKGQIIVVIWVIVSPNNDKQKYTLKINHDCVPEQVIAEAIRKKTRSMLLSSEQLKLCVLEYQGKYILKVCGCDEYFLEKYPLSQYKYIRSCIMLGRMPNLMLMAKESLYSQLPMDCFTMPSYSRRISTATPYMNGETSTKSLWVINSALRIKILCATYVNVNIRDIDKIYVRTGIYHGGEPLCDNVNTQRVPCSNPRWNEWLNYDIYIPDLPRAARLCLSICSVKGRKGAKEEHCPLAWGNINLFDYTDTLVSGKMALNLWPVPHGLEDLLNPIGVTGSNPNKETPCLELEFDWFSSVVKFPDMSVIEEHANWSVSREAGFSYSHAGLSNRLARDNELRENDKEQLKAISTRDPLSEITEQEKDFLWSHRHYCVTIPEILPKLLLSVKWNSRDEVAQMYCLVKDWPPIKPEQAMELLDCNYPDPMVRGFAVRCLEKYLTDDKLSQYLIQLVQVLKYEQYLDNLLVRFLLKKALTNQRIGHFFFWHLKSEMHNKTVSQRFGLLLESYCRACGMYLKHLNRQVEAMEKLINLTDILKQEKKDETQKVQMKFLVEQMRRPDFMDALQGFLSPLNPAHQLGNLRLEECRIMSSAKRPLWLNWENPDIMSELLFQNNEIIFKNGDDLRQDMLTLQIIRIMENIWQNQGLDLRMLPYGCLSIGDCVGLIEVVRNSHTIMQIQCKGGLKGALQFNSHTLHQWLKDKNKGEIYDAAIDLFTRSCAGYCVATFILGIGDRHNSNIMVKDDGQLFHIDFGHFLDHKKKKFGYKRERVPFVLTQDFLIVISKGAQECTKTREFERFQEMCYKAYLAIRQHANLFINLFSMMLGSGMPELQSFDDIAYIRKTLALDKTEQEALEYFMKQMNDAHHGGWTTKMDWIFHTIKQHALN

Turning to `COc1ncccc1-n1c(=O)n(C)c2cnc3ccc(-c4cnc5[nH]ccc5c4)cc3c21` [Example 1.2, 1-(2-Methoxy-pyridin-3-yl)-3-methyl-8-(1H-pyrrolo[2,3-b]pyridin-5-yl)-1,3-dihydro-imidazo[4,5-c]quinolin-2-one], the IC50 at PI3K alfa (read-out: PI3Kalfa/IC50) was 15 nM; in assay [1] (read-out: p-S6) it was 2.61 nM. In the same order, the values of `COc1ncccc1-n1c(=O)n(C)c2cnc3ccc(-c4ccc(C(N)=O)cc4)cc3c21` [Example 1.6, 4-[1-(2-Methoxy-pyridin-3-yl)-3-methyl-2-oxo-2,3-dihydro-1H-imidazo[4,5-c]quinolin-8-yl]-benzamide] are 17 nM and 21.9 nM. On to `Cc1ncccc1-n1c(=O)n(C)c2cnc3ccc(-c4ccc(C(N)=O)cc4)cc3c21` [Example 2.3, 4-[3-Methyl-1-(2-methyl-pyridin-3-yl)-2-oxo-2,3-dihydro-1H-imidazo[4,5-c]quinolin-8-yl]-benzamide], for which the IC50 on PI3K alfa (read-out: PI3Kalfa/IC50) worked out at 20 nM; in assay [1] (read-out: p-S6) it was 56.4 nM. In the same order, the values of `CCOc1ncc(-c2ccc3ncc4c(c3c2)n(-c2cccnc2C)c(=O)n4C)cn1` [Example 2.5, 8-(2-Ethoxy-pyrimidin-5-yl)-3-methyl-1-(2-methyl-pyridin-3-yl)-1,3-dihydro-imidazo[4,5-c]quinolin-2-one] are 119 nM and 237 nM. For `Cc1ncccc1-n1c(=O)n(C)c2cnc3ccc(-c4ccc(CO)nc4)cc3c21` [Example 2.6, 8-(6-Hydroxymethyl-pyridin-3-yl)-3-methyl-1-(2-methyl-pyridin-3-yl)-1,3-dihydro-imidazo[4,5-c]quinolin-2-one], in that order: 100 nM and 66.1 nM. For `Cc1ncccc1-n1c(=O)n(C)c2cnc3ccc(-c4ccc(N)nc4)cc3c21` [Example 2.7, 8-(6-Amino-pyridin-3-yl)-3-methyl-1-(2-methyl-pyridin-3-yl)-1,3-dihydro-imidazo[4,5-c]quinolin-2-one], in that order: 18 nM and 12.4 nM. Regarding `Cc1ncccc1-n1c(=O)n(C)c2cnc3ccc(-c4ccc(OCCCN(C)C)nc4)cc3c21` [Example 2.10, 8-[6-(3-Dimethylamino-propoxy)-pyridin-3-yl]-3-methyl-1-(2-methyl-pyridin-3-yl)-1,3-dihydro-imidazo[4,5-c]quinolin-2-one], the IC50 in assay [1] (read-out: p-S6) was 159 nM. `Cc1ncccc1-n1c(=O)n(C)c2cnc3ccc(-c4cnc(N)c(C(F)(F)F)c4)cc3c21` [Example 2.11, 8-(6-Amino-5-trifluoromethyl-pyridin-3-yl)-3-methyl-1-(2-methyl-pyridin-3-yl)-1,3-dihydro-imidazo[4,5-c]quinolin-2-one]: the figures for the IC50 (on PI3K alfa (read-out: PI3Kalfa/IC50); in assay [1] (read-out: p-S6)) were 7 nM and 2.35 nM, respectively. In the same order, the values of `COc1ccc(-c2ccc3ncc4c(c3c2)n(-c2cccnc2C)c(=O)n4C)cn1` [Example 2.12, 8-(6-Methoxy-pyridin-3-yl)-3-methyl-1-(2-methyl-pyridin-3-yl)-1,3-dihydro-imidazo[4,5-c]quinolin-2-one] are 26 nM and 18 nM. In the same order, the values of `CNc1ccc(-c2ccc3ncc4c(c3c2)n(-c2cccnc2C)c(=O)n4C)cn1` [Example 2.13, 3-Methyl-8-(6-methylamino-pyridin-3-yl)-1-(2-methyl-pyridin-3-yl)-1,3-dihydro-imidazo[4,5-c]quinolin-2-one] are 14 nM and 2.78 nM. Consider `Cc1ncccc1-n1c(=O)n(C)c2cnc3ccc(-c4cnc(N(C)C)nc4)cc3c21` [Example 2.15, 8-(2-Dimethylamino-pyrimidin-5-yl)-3-methyl-1-(2-methyl-pyridin-3-yl)-1,3-dihydro-imidazo[4,5-c]quinolin-2-one], for which the values for the IC50 (at PI3K alfa (read-out: PI3Kalfa/IC50); in assay [1] (read-out: p-S6)) were 35 nM and 68.2 nM, respectively. As for `Cc1ncccc1-n1c(=O)n(C)c2cnc3ccc(-c4cncc(NC(C)C)c4)cc3c21` [Example 2.24, 8-(5-Isopropylamino-pyridin-3-yl)-3-methyl-1-(2-methyl-pyridin-3-yl)-1,3-dihydro-imidazo[4,5-c]quinolin-2-one], the IC50 on PI3K alfa (read-out: EPK_PI3Kalfa/IC50) was found to be 28 nM; in assay [1] (read-out: p-S6 IC50), 4 nM. For `CNc1cncc(-c2ccc3ncc4c(c3c2)n(-c2cccnc2C)c(=O)n4C)c1` [Example 2.26, 3-Methyl-8-(5-methylamino-pyridin-3-yl)-1-(2-methyl-pyridin-3-yl)-1,3-dihydro-imidazo[4,5-c]quinolin-2-one], in that order: 14 nM and 6 nM. For `COc1cc(-c2ccc3ncc4c(c3c2)n(-c2cccnc2C)c(=O)n4C)cnc1C(OC)OC` [Example 2.27, 8-(6-Dimethoxymethyl-5-methoxy-pyridin-3-yl)-3-methyl-1-(2-methyl-pyridin-3-yl)-1,3-dihydro-imidazo[4,5-c]quinolin-2-one], in that order: 80 nM and 54 nM.

On to `CCOc1cc(-c2ccc3ncc4c(c3c2)n(-c2cccnc2C)c(=O)n4C)cnc1COC` [Example 2.28, 8-(5-Ethoxy-6-methoxymethyl-pyridin-3-yl)-3-methyl-1-(2-methyl-pyridin-3-yl)-1,3-dihydro-imidazo[4,5-c]quinolin-2-one], for which the IC50 on PI3K alfa (read-out: EPK_PI3Kalfa/IC50) was determined as 267 nM; in assay [1] (read-out: p-S6 IC50), 14 nM.

`Cc1ncccc1-n1c(=O)n(C)c2cnc3ccc(-c4cncc(N5CCC5)c4)cc3c21` [Example 2.29, 8-(5-Azetidin-1-yl-pyridin-3-yl)-3-methyl-1-(2-methyl-pyridin-3-yl)-1,3-dihydro-imidazo[4,5-c]quinolin-2-one]: the IC50 at PI3K alfa (read-out: EPK_PI3Kalfa/IC50) was 179 nM; in assay [1] (read-out: p-S6 IC50), 5 nM. With `CCNc1cc(-c2ccc3ncc4c(c3c2)n(-c2cccnc2C)c(=O)n4C)cnc1CO` [Example 2.31, 8-(5-Ethylamino-6-hydroxymethyl-pyridin-3-yl)-3-methyl-1-(2-methyl-pyridin-3-yl)-1,3-dihydro-imidazo[4,5-c]quinolin-2-one], the IC50 at PI3K alfa (read-out: EPK_PI3Kalfa/IC50) stood at 14 nM; in assay [1] (read-out: p-S6 IC50) it was 21 nM. Turning to `Cc1nc(C(C)(C)O)ccc1-n1c(=O)n(C)c2cnc3ccc(-c4cnc(N)c(C(F)(F)F)c4)cc3c21` [Example 31.5, 8-(6-Amino-5-trifluoromethyl-pyridin-3-yl)-1-[6-(1-hydroxy-1-methyl-ethyl)-2-methyl-pyridin-3-yl]-3-methyl-1,3-dihydro-imidazo[4,5-c]quinolin-2-one], the IC50 at PI3K alfa (read-out: EPK_PI3Kalfa/IC50) worked out at 6 nM.

On to `Cc1nc(C(C)(C)O)ccc1-n1c(=O)n(C)c2cnc3ccc(-c4cncc(C(C)(C)C#N)c4)cc3c21` [Example 31.6, 2-(5-{1-[6-(1-Hydroxy-1-methyl-ethyl)-2-methyl-pyridin-3-yl]-3-methyl-2-oxo-2,3-dihydro-1H-imidazo[4,5-c]quinolin-8-yl}-pyridin-3-yl)-2-methyl-propionitrile], for which, at PI3K alfa (read-out: EPK_PI3Kalfa/IC50), the IC50 came out at 2 nM. In the case of `CCNc1ncc(-c2ccc3ncc4c(c3c2)n(-c2ccc(C(C)(C)O)nc2C)c(=O)n4C)cn1` [Example 31.7, 8-(2-Ethylamino-pyrimidin-5-yl)-1-[6-(1-hydroxy-1-methyl-ethyl)-2-methyl-pyridin-3-yl]-3-methyl-1,3-dihydro-imidazo[4,5-c]quinolin-2-one], the IC50 on PI3K alfa (read-out: EPK_PI3Kalfa/IC50) is 75 nM. Same read-out and setting: for `Cc1nc(C(C)(C)O)ccc1-n1c(=O)n(C)c2cnc3ccc(-c4cncc(C5(C#N)CCC5)c4)cc3c21` [Example 31.8, 1-(5-{1-[6-(1-Hydroxy-1-methyl-ethyl)-2-methyl-pyridin-3-yl]-3-methyl-2-oxo-2,3-dihydro-1H-imidazo[4,5-c]quinolin-8-yl}-pyridin-3-yl)-cyclobutanecarbonitrile] the value was 31 nM; for `CNc1ncc(-c2ccc3ncc4c(c3c2)n(-c2ccc(N3CC[C@H](O)C3)nc2C)c(=O)n4C)cn1` [Example 32.1, 1-[6-((S)-3-Hydroxy-pyrrolidin-1-yl)-2-methyl-pyridin-3-yl]-3-methyl-8-(2-methylamino-pyrimidin-5-yl)-1,3-dihydro-imidazo[4,5-c]quinolin-2-one], 17 nM.
